Measurements published in ChEMBL document CHEMBL6134830, “Naturally inspired chimeric quinolone derivatives to reverse bacterial drug resistance” (Eur J Med Chem, 2025).
Values after ≈ are worked out from the molar mass of the structure shown. Active and inactive are the calls of the source. No cut-off for these calls is given here.

Tests used:
Staphylococcus aureus [1] = experiment: Antimicrobial activity against Methicillin-resistant Staphylococcus aureus assessed as reduction in bacterial growth at 4 times MIC measured for 0.5 to 24 hrs by time-kill kinetics assay; type: functional, organism-based; conditions: time 0.5-24 hrs
L929 = experiment: Cytotoxicity against mouse L929 cells assessed as reduction in cell viability at 100 microg/mL incubated for 24 hrs by MTT assay; type: toxicity, cell-based; conditions: l929, 24 h, dose 100 µg/ml
Cell membrane [2] = experiment: Disruption of cell membrane in methicillin-resistant Staphylococcus aureus at 4 times MIC measured after 4 hrs by scanning electron microscopic analysis; type: subcellular
Staphylococcus aureus [3] = experiment: Antibacterial activity against methicillin-resistant Staphylococcus aureus infected in ICR mouse model of subcutaneous abscess assessed as effect on skin abscesses at 25 mg/kg, sc measured at 48 hrs post-injection; type: functional, organism-based
Cell membrane [4] = experiment: Disruption of cell membrane in methicillin-resistant Staphylococcus aureus assessed as PI-positive bacteria at 8 times MIC measured after 30 mins by PI staining based flow cytometry analysis (reference value: 7.49 %); type: subcellular
Staphylococcus aureus [5] = experiment: Antibacterial activity against methicillin-resistant Staphylococcus aureus infected in ICR mouse model of subcutaneous abscess assessed as reduction in infiltration of inflammatory cells at 25 mg/kg, sc measured at 48 hrs post-injection by H and E/Masson staining based analysis; type: functional, organism-based
Mus musculus [6] = experiment: Anti-inflammatory activity against subcutaneous abscess ICR mouse model infected with methicillin-resistant Staphylococcus aureus assessed as reduction in TNF-alpha level at 25 mg/kg, sc measured at 48 hrs post-injection by ELISA method; type: functional, organism-based
Escherichia coli [7] = experiment: Antimicrobial activity against Escherichia coli ATCC 25922 measured after 5 to 25 passages at sub-MIC incubated for 12 hrs; type: functional, organism-based
Enterococcus gallinarum = experiment: Antimicrobial activity against Enterococcus gallinarum ATCC 49573 assessed as inhibition of bacterial growth measured after 20 hrs by CLSI protocol based Muller Hinton broth assay; type: functional
Cell membrane [8] = experiment: Disruption of cell membrane in methicillin-resistant Staphylococcus aureus assessed as PI-positive bacteria at 2 times MIC measured after 30 mins by PI staining based flow cytometry analysis (reference value: 7.49 %); type: subcellular
Staphylococcus aureus [9] = experiment: Antibacterial activity against methicillin-resistant Staphylococcus aureus infected in ICR mouse model of subcutaneous abscess assessed as effect on lesions at 25 mg/kg, sc measured at 48 hrs post-injection; type: functional, organism-based
[10] = Toxicity in ICR mouse assessed as pathological change in skin at 25 mg/kg, sc administered as single dose and measured at 2 hrs post-infection by H and E staining based analysis; type: organism-based; conditions: in vivo
Escherichia coli [11] = experiment: Antimicrobial activity against Escherichia coli ATCC 25922 assessed as inhibition of bacterial growth measured after 20 hrs by CLSI protocol based Muller Hinton broth assay; type: functional
[12] = Toxicity in ICR mouse assessed as compatible skin at 25 mg/kg, sc administered as single dose and measured at 2 hrs post-infection by H and E staining based analysis; type: organism-based; conditions: in vivo
Enterococcus faecalis = experiment: Antimicrobial activity against Enterococcus faecalis ATCC 19433 assessed as inhibition of bacterial growth measured after 20 hrs by CLSI protocol based Muller Hinton broth assay; type: functional
Mus musculus [13] = experiment: Anti-inflammatory activity against subcutaneous abscess ICR mouse model infected with methicillin-resistant Staphylococcus aureus assessed as reduction in IL-6 level at 25 mg/kg, sc measured at 48 hrs post-injection by ELISA method; type: functional, organism-based
[14] = Toxicity in ICR mouse assessed as pathological change in lung at 25 mg/kg, sc administered as single dose and measured at 2 hrs post-infection by H and E staining based analysis; type: organism-based; conditions: in vivo
Staphylococcus aureus [15] = experiment: Antibacterial activity against methicillin-resistant Staphylococcus aureus infected in ICR mouse model of subcutaneous abscess assessed as bacterial elimation at 25 mg/kg, sc measured at 48 hrs post-injection relative to control; type: functional
[16] = Hemolytic activity in Sprague-Dawley rat Red blood cells at 200 ug/ml incubated for 1 hr by absorbance based analysis; type: toxicity, cell-based; conditions: erythrocyte, dose 200 µg/ml
Cell membrane [17] = experiment: Disruption of cell membrane in methicillin-resistant Staphylococcus aureus assessed as PI-positive bacteria at 4 times MIC measured after 30 mins by PI staining based flow cytometry analysis (reference value: 7.49 %); type: subcellular
[18] = Toxicity in ICR mouse assessed as pathological change in liver at 25 mg/kg, sc administered as single dose and measured at 2 hrs post-infection by H and E staining based analysis; type: organism-based; conditions: in vivo
Staphylococcus aureus [19] = experiment: Antimicrobial activity against Methicillin-resistant Staphylococcus aureus ATCC 33591 measured after 5 to 25 passages at sub-MIC incubated for 12 hrs; type: functional, organism-based
Acinetobacter baumannii = experiment: Antimicrobial activity against Acinetobacter baumannii ATCC 19606 assessed as inhibition of bacterial growth measured after 20 hrs by CLSI protocol based Muller Hinton broth assay; type: functional
[20] = Toxicity in ICR mouse assessed as pathological change in heart at 25 mg/kg, sc administered as single dose and measured at 2 hrs post-infection by H and E staining based analysis; type: organism-based; conditions: in vivo
[21] = Toxicity in ICR mouse assessed as pathological change in spleen at 25 mg/kg, sc administered as single dose and measured at 2 hrs post-infection by H and E staining based analysis; type: organism-based; conditions: in vivo
[22] = Toxicity in ICR mouse assessed as pathological change in kidney at 25 mg/kg, sc administered as single dose and measured at 2 hrs post-infection by H and E staining based analysis; type: organism-based; conditions: in vivo
Staphylococcus aureus [23] = experiment: Antibacterial activity against methicillin-resistant Staphylococcus aureus infected in ICR mouse model of subcutaneous abscess assessed as reduction in IL-6 level at 25 mg/kg, sc measured at 48 hrs post-injection by ELISA method; type: functional, organism-based
Staphylococcus aureus [24] = experiment: Antimicrobial activity against Staphylococcus aureus ATCC 25923 assessed as inhibition of bacterial growth measured after 20 hrs by CLSI protocol based Muller Hinton broth assay; type: functional
Staphylococcus aureus [25] = experiment: Antimicrobial activity against Methicillin-resistant Staphylococcus aureus ATCC 43300 assessed as inhibition of bacterial growth measured after 20 hrs by CLSI protocol based Muller Hinton broth assay; type: functional
Staphylococcus aureus [26] = experiment: Antibacterial activity against methicillin-resistant Staphylococcus aureus infected in ICR mouse model of subcutaneous abscess assessed as bacterial load at 25 mg/kg, sc measured at 48 hrs post-injection; type: functional
Staphylococcus aureus [27] = experiment: Antimicrobial activity against Methicillin-resistant Staphylococcus aureus assessed as reduction in bacterial load at 4 times MIC measured after 4 hrs by time-kill kinetics assay; type: functional
Staphylococcus aureus [28] = experiment: Antimicrobial activity against Methicillin-resistant Staphylococcus aureus assessed as reduction in bacterial growth at 4 times MIC measured after 8 hrs by time-kill kinetics assay relative to control; type: functional; design: scale not given: the % may be the effect or the level left
Cell membrane [29] = experiment: Disruption of cell membrane in methicillin-resistant Staphylococcus aureus at 8 times MIC measured after 4 hrs by scanning electron microscopic analysis; type: subcellular
Pseudomonas aeruginosa = experiment: Antimicrobial activity against Pseudomonas aeruginosa ATCC 27853 assessed as inhibition of bacterial growth measured after 20 hrs by CLSI protocol based Muller Hinton broth assay; type: functional

O=C(O)c1cn(C2CC2)c2cc(N3CCNCC3)c(F)cc2c1=O [CIPROFLOXACIN]
Activity (Staphylococcus aureus [1]): inactive
Activity (L929): Non-toxic
Activity (Cell membrane [2]): inactive
Activity (Staphylococcus aureus [3]): inactive
Activity (Cell membrane [4]): 9.46%
Activity (Staphylococcus aureus [5]): Active; Partial Reduction In Inflammation
Activity (Mus musculus [6]): Active

CCCCCCCCCNC(=O)[C@H](CCCCN)NC(=O)[C@H](CCCNC(=N)N)NC(=O)[C@H](CCCCN)NC(=O)c1ccc(C(=O)N2CCN(c3cc4c(cc3F)c(=O)c(C(=O)O)cn4C3CC3)CC2)cc1
Activity (Escherichia coli [7]): Active
MIC (Enterococcus gallinarum): 12.5 µg/mL (≈ 12.3 µM)
Activity (Cell membrane [8]): 12%
Activity (Staphylococcus aureus [9]): Active
Activity (L929): Non-toxic
Activity [10]: Non-toxic
MIC (Escherichia coli [11]): 3.12 µg/mL (≈ 3.07 µM)
Activity (Cell membrane [2]): Active
Activity [12]: Non-toxic
MIC (Enterococcus faecalis): 12.5 µg/mL (≈ 12.3 µM)
Activity (Mus musculus [13]): Active
Activity [14]: Non-toxic
Activity (Staphylococcus aureus [15]): 99.99%
Activity [16]: Non-toxic
Activity (Cell membrane [17]): 26.8%
Activity (Cell membrane [4]): 58.4%
Activity (Staphylococcus aureus [5]): Active
Activity [18]: Non-toxic
Activity (Staphylococcus aureus [19]): Active
MIC (Acinetobacter baumannii): 6.25 µg/mL (≈ 6.14 µM)
Activity [20]: Non-toxic
Activity (Mus musculus [6]): Active
Activity [21]: Non-toxic
Activity [22]: Non-toxic
Activity (Staphylococcus aureus [23]): Active
MIC (Staphylococcus aureus [24]): 1.56 µg/mL (≈ 1.53 µM)
MIC (Staphylococcus aureus [25]): 6.25 µg/mL (≈ 6.14 µM)
Activity (Staphylococcus aureus [26]): 4.4 log10CFU/ml
Activity (Staphylococcus aureus [27]): 3.6 log10CFU/ml
Activity (Staphylococcus aureus [28]): 100%
Activity (Cell membrane [29]): Active
MIC (Pseudomonas aeruginosa): 3.12 µg/mL (≈ 3.07 µM)
